Test results: patent US9707155B2, “Delamination resistant pharmaceutical glass containers containing active pharmaceutical ingredients” (Corning Incorporated, priority 2013, dated 2017)
Each block holds one molecule with its values, some of them ahead of it.

Columns and labels:
blood glucose = assay: Action profile in dogs (blood glucose as percentage of initial level); format: in vivo; settings: blood glucose at 1 h, 2 h, 3 h, 5 h, 7h
Method: An action profile of Lyxumia and/or Lyxumia and Lantus (in combination) after subjection to the storage conditions described in Example 6 is carried out by comparing insulin glargine in dogs with human insulin-Arg^B31-Arg^B32-OH and basal H insulin as an NPH (neutral protamine Hagedorn) composition containing about 10 μg of Zn^2+.
Blood glucose is measured as a percentage of the initial level at the following time points: 1 h, 2 h, 3 h, 5 h, 7h.

[1] = Stability after storage conditions; format: physicochemical; settings: under the chosen conditions
[2] = test system: patients with acute coronary syndromes; settings: compared to unfractionated heparin and eptifibatide; cited from earlier work
[3] = in vivo; cited from earlier work
tumor cell lines = settings: cited from earlier work
[4] = cited from earlier work
tumor xenografts (WM9) = assay: Melanoma xenografts (WM9) in nude mice; format: in vivo; settings: 5 days treatment, versus untreated mice
Method: Tumor cells (5×10^6) are injected into the bilateral flanks of female […] nude mice (6-8 weeks of age). The tumors are measured with calipers using the formula: V=[…], where V is the volume, L is the largest diameter, and I is the perpendicular diameter of the tumor. When the volume of the tumor nodules reaches 100-150 mm^3, mice are randomly assigned to control or treatment groups (6-9 mice/group).
Therapeutic treatment with a combination of SAR2405550/BSI-201 and the alkylating agent TMZ was initiated when tumor xenografts (WM9) in nude mice reach 100 mm^3 in volume and treatment was continued for 5 days. In specific instances, the tumor volume is measured for assessment of therapeutic effect.

[5] = test system: patients with active rheumatoid arthritis; settings: week 12, subcutaneous, relative to placebo, patients receiving methotrexate; cited from earlier work
BAF-h130 cells = assay: IL-6 signaling mediated by sIL-6R, BAF-h130 proliferation ([3H]-thymidine uptake); format: cell-based, murine; settings: IL-6 100 ng/mL, sIL-6R 500 ng/mL, 4 days
Method: BAF-h130 cell is a human gp130-transfected murine pro-B cell, BAF-B03. BAF-h130 cells (1×10^4) are cultured with IL-6 (100 ng/mL) (Genzyme-techne, Minneapolis, Minn., USA), sIL-6R (500 ng/mL) or sarilumab (0.01-100 Ag/mL) at 37° C. under 5% CO2 for 4 days in 96-well flat-bottomed plates. The culture is performed in quadruplicate. [^3H]-thymidine (10 μL/well, 3.7 MBq/mL) (Amercham Pharmacia Biotech, Piscataway, N.J., USA) is added to each well 5 h before the completion of culture. After incubation, the amount of [^3H]-thymidine uptake into cells is determined with a scintillation counter (1450 MicroBeta) (Wallace Oy, Turku, Finland).
BaF-h130 cells could grow by the co-addition of IL-6 (100 ng/ml) and sIL-6R (500 ng/mL), but not by IL-6 or sIL-6R alone. […] Sarilumab suppresses the IL-6/sIL-6R complex-induced proliferation of human gp130-transfected cell, BAF-h130.

[6] = test system: IL-6-dependent myeloma cell line, KPMM2; assay: IL-6 signaling mediated by mIL-6R, KPMM2 growth; format: cell-based
Method: IL-6-dependent myeloma cell line, KPMM2 (1×10^5 cells/mL) are cultured with IL-6 (0-100 ng/mL) and sarilumab (0-100 μg/mL) in a CO2 incubator for 4 days in a 96-well plate. After incubation, the amount of [^3H]-thymidine uptake into cells is determined with a scintillation counter.

human IL-6R = biological target: T1, human IL-6R (Homo sapiens, UniProt P08887); assay: Binding to COS-7 cells transfected with human IL-6R (fluorescent intensity); format: cell-based
T1 construct: expressed in transfected cells; host or cells: COS-7 cells
T1 sequence (P08887 20-468): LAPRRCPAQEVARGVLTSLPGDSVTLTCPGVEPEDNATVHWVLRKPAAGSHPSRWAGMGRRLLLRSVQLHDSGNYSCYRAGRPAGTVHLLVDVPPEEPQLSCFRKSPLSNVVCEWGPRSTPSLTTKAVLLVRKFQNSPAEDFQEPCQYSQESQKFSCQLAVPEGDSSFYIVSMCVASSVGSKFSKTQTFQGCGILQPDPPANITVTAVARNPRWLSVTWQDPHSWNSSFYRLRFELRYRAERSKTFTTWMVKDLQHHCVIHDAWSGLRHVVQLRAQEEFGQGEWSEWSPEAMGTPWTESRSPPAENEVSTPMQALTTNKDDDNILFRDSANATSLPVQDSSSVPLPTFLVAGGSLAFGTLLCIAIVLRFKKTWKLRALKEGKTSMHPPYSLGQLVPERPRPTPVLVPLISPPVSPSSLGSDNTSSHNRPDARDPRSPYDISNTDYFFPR
Method: COS-7 cells (1×10^6) are inoculated into 10 mL of the medium on a 10 cm dish. Next day, the old medium is replaced with 20 mL of new medium per dish. After 3.42 mL of Opti-MEM (Invitrogen, Carlsbad, Calif., USA) is placed in a polystyrene tube, 180 μL of Trans-IT LTI reagent (Takara Bio, Shiga, Japan) is added and mixed well. The mixture (3.6 mL) is left at room temperature for 15 min. After 60 μg of human IL-6R expression vector hIL-6R/pcDNA3.1 (+) or control (empty) vector pcDNA3.1 (+) (Invitrogen) is added to 5.4 mL of Opti-MEM and mixed well with the above mixture, the resulting solution (9 mL) is allowed to stand at room temperature for 15 min, divided in 3 mL aliquots on three dishes, and incubated at 37 8 C under 5% CO2 for 3 days.

Molecule: 21^A-Gly-30^Ba-L-Arg-30^Bb-L-Arg-human insulin [Gly^A21-Human Insulin-Arg^B31-Arg^B32-OH]
- basal action profile (blood glucose): same advantageous basal profile as human insulin-Arg^B31-Arg^B32-OH
- stability [1]: stable for a long period of time

Molecule: COC(=O)[C@H](Cc1cccc(C(=N)N)c1)[C@@H](C)NC(=O)c1ccc(-c2cc[n+]([O-])cc2)cc1 (mixture of isomers) [Otamixaban, Methyl(2R,3R)-2-{3-[amino(imino)methyl]benzyl}-3-{[4-(1-oxidopyridin-4-yl)benzoyl]amino}butanoate]
- combined end point of death or myocardial infarction [2]: significant reduction
- half-life [3]: ~30 min

Molecule: NC(=O)c1ccc(I)c([N+](=O)[O-])c1 [Iniparib, 4-iodo-3-nitrobenzamide]
- cell cycle arrest (tumor cell lines): inducing cell cycle arrest in the G2/M phase
- potentiation of DNA damaging modalities (tumor cell lines): potentiating the cell cycle effects of DNA damaging modalities
- γ-H2AX induction (tumor cell lines): inducing γ-H2AX
- solubility [4]: soluble

Molecule: Cn1nnc2c(C(N)=O)ncn2c1=O [TMZ]
- tumor growth (tumor xenografts (WM9)): No significant differences in tumor growth

- fluorescent intensity in COS-7 cells expressing human IL-6R (human IL-6R; IL-6R transfectant): increases the fluorescent intensity
- fluorescent intensity in COS-7 mock cells (human IL-6R; control vector pcDNA3.1 (+) transfectant): not in COS-7 mock cells
B1: Sarilumab: fully human monoclonal antibody that selectively targets the interleukin-6 receptor (IL-6R) (antibody, chains of the INN, looked up, V domains shown)
VH: EVQLVESGGGLVQPGRSLRLSCAASRFTFDDYAMHWVRQAPGKGLEWVSGISWNSGRIGYADSVKGRFTISRDNAENSLFLQMNGLRAEDTALYYCAKGRDSFDIWGQGTMVTVSS
VL: DIQMTQSPSSVSASVGDRVTITCRASQGISSWLAWYQQKPGKAPKLLIYGASSLESGVPSRFSGSGSGTDFTLTISSLQPEDFASYYCQQANSFPYTFGQGTKLEIK
- ACR20 [5]: significant and clinically relevant improvements
- proliferation of BAF-h130 cells induced by IL-6/sIL-6R complex (BAF-h130 cells): suppresses the proliferation of BAF-h130 cells induced by the complex of IL-6 and sIL-6R in a concentration-dependent manner
- growth of KPMM2 [6]: suppress the growth
